Broadly, the bioavailability is dose-corrected exposure relative to a reference, in per cent. High values mean much systemic uptake, low ones little systemic uptake. By solubility is commonly meant the concentration that dissolves in the medium under given conditions. In general, AUC refers to concentration integrated over time. High values mean high exposure, low ones low exposure. The term IC50 denotes the midpoint of a concentration-inhibition curve. Read a high IC50 as a need for much substance.

The record followed here is ChEMBL document CHEMBL3769394, “The Importance of Being Me: Magic Methyls, Methyltransferase Inhibitors, and the Discovery of Tazemetostat” (J Med Chem, 2016).

SMILES strings stand for the structures. The source made the active and inactive calls. The rule behind the calls is not given here. Some results are limits rather than exact numbers.

System in the first data set: not listed separately
Nature of the data set: Oral bioavailability in mouse at 10 mg/kg by LC-MS/MS analysis. The data set is classed as ADME, organism-based. Particulars: in vivo.
`CCN(c1cc(Cl)cc(C(=O)NCc2c(C)cc(C)[nH]c2=O)c1C)C1CCOCC1` registered a bioavailability of 1.6%.

Turning to `Cc1cc(C)c(CNC(=O)c2cc(Br)cc(N(C)C3CCCC3)c2C)c(=O)[nH]1`, the bioavailability was 2%.

The compound `Cc1cc(C)c(CNC(=O)c2cc(Br)cc(N(C)C3CCOCC3)c2C)c(=O)[nH]1` had a bioavailability of 18%.

Compound `Cc1cc(C)c(CNC(=O)c2cc(-c3ccc(CN4CCOCC4)cc3)nc3c2cnn3C(C)C)c(=O)[nH]1` had a bioavailability of 41%.

On to `Cc1cc(C)c(CNC(=O)c2cc(-c3ccc4c(c3)OCCO4)nc3c2cnn3C(C)C)c(=O)[nH]1`, for which the bioavailability came out at 0.5%.

Turning to `Cc1cc(C)c(CNC(=O)c2cc(-c3ccc(CN4CCOCC4)cc3)cc(N(C)C3CCCC3)c2C)c(=O)[nH]1`, the bioavailability amounted to 24%.

Regarding `Cc1cc(C)c(CNC(=O)c2cc(-c3ccc(CN4CCOCC4)cc3)cc3c2cnn3C2CCCC2)c(=O)[nH]1`, the bioavailability is 47%.

On to `CCN(c1cc(-c2ccc(CN3CCOCC3)cc2)cc(C(=O)NCc2c(C)cc(C)[nH]c2=O)c1C)C1CCOCC1` [TAZEMETOSTAT], for which the bioavailability was determined as 55%.

In another data set the target is T1, Histone-lysine N-methyltransferase EZH2 (Homo sapiens, UniProt Q15910). Nature of the data set: Inhibition of methyltransferase activity of human EZH2 using chicken oligonucleosomes as substrate up to 10 uM by pull down assay.
Conditions: not given
Target sequence in this assay (Q15910 whole entry, looked up): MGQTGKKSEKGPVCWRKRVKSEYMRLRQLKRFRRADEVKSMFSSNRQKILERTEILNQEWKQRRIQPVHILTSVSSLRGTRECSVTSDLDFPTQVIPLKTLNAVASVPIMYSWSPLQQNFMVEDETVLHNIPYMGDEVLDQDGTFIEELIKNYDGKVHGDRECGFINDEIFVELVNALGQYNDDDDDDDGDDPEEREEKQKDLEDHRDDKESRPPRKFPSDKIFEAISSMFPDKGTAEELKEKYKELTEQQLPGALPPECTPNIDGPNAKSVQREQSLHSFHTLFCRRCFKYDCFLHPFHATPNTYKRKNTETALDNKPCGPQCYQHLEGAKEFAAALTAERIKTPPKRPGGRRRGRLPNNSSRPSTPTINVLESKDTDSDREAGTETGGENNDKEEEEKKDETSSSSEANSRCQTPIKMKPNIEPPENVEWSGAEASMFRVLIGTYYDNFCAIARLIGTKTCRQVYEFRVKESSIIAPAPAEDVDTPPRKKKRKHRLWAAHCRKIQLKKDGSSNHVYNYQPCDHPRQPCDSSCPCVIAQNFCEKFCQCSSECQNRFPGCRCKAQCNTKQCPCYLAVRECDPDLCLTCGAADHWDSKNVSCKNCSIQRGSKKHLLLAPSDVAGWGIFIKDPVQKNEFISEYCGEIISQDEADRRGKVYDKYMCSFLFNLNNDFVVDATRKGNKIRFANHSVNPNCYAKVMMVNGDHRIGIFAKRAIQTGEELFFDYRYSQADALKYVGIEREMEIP
For the compound `CCN(c1cc(Cl)cc(C(=O)NCc2c(C)cc(C)nc2OC)c1C)C1CCOCC1`, the inhibition result is “inactive”.

System in a further data set: not listed separately
Nature of the data set: Aqueous solubility of the compound at pH 7. It counts as physicochemical. Particulars: aqueous, read-out: solubility.
Take `Cc1cc(C)c(CNC(=O)c2cc(C)n(C3CCCCC3)c2C)c(=O)[nH]1`: the solubility was less than 10 µM.

Still in this data set, the particulars now being: buffer.
Take `Cc1cc(C)c(CNC(=O)c2cc(-c3ccc(N4CCNCC4)nc3)nc3c2cnn3C(C)C)c(=O)[nH]1`: the solubility entry is on record as “soluble”.

In the case of `Cc1cc(C)c(CNC(=O)c2ccnc3c2cnn3C(C)C)c(=O)[nH]1`, the solubility result is on record as “soluble”.

With `Cc1cc(C)c(CNC(=O)c2cc(-c3ccc(CN4CCOCC4)cc3)nc3c2cnn3C(C)C)c(=O)[nH]1`, the solubility result was “soluble”.

For the compound `Cc1cc(C)c(CNC(=O)c2cc(N3CCNCC3)nc3c2cnn3C(C)C)c(=O)[nH]1`, the solubility entry was “soluble”.

Regarding `COc1cc(C(=O)NCc2c(C)cc(C)[nH]c2=O)c2cnn(C(C)C)c2n1`, the solubility entry is recorded as “soluble”.

With `Cc1cc(C)c(CNC(=O)c2cc(C(C)C)nc3c2cnn3C(C)C)c(=O)[nH]1`, the solubility entry is listed as “soluble”.

As for `Cc1cc(C)c(CNC(=O)c2cc(Br)nc3c2cnn3C(C)C)c(=O)[nH]1`, the solubility result is “soluble”.

With `Cc1cc(C)c(CNC(=O)c2cc(C3=CC(C)(C)NC(C)(C)C3)nc3c2cnn3C(C)C)c(=O)[nH]1`, the solubility entry was “soluble”.

System in a further data set: not listed separately
Nature of the data set: AUC in mouse at 2 mg/kg, iv and 10 mg/kg, po by LC-MS/MS analysis. Particulars: in vivo. The data set is classed as ADME, organism-based.
In the case of `CCN(c1cc(Cl)cc(C(=O)NCc2c(C)cc(C)[nH]c2=O)c1C)C1CCOCC1`, the AUC was 680 ng·h/mL.

The compound `Cc1cc(C)c(CNC(=O)c2cc(Br)cc(N(C)C3CCCC3)c2C)c(=O)[nH]1` registered an AUC of 46 ng·h/mL.

Compound `Cc1cc(C)c(CNC(=O)c2cc(Br)cc(N(C)C3CCOCC3)c2C)c(=O)[nH]1` came in with an AUC of 350 ng·h/mL.

`Cc1cc(C)c(CNC(=O)c2cc(-c3ccc(CN4CCOCC4)cc3)nc3c2cnn3C(C)C)c(=O)[nH]1` displayed an exposure (AUC) of 950 ng·h/mL.

In the case of `Cc1cc(C)c(CNC(=O)c2cc(-c3ccc4c(c3)OCCO4)nc3c2cnn3C(C)C)c(=O)[nH]1`, the exposure (AUC) came to 700 ng·h/mL.

In the case of `Cc1cc(C)c(CNC(=O)c2cc(-c3ccc(CN4CCOCC4)cc3)cc(N(C)C3CCCC3)c2C)c(=O)[nH]1`, the AUC came to 2500 ng·h/mL.

On to `Cc1cc(C)c(CNC(=O)c2cc(-c3ccc(CN4CCOCC4)cc3)cc3c2cnn3C2CCCC2)c(=O)[nH]1`, for which the AUC came to 2900 ng·h/mL.

For `CCN(c1cc(-c2ccc(CN3CCOCC3)cc2)cc(C(=O)NCc2c(C)cc(C)[nH]c2=O)c1C)C1CCOCC1` [TAZEMETOSTAT], the exposure (AUC) was found to be 2500 ng·h/mL.

System in the next data set: not listed separately
Nature of the data set: Clearance in mouse at 2 mg/kg, iv and 10 mg/kg, po by LC-MS/MS analysis. Particulars: in vivo. The data set is classed as ADME, organism-based.
The compound `CCN(c1cc(Cl)cc(C(=O)NCc2c(C)cc(C)[nH]c2=O)c1C)C1CCOCC1` came in with a clearance of 49 mL/min/kg.

In turn, `Cc1cc(C)c(CNC(=O)c2cc(Br)cc(N(C)C3CCCC3)c2C)c(=O)[nH]1` registered a clearance of 18 mL/min/kg.

In turn, `Cc1cc(C)c(CNC(=O)c2cc(Br)cc(N(C)C3CCOCC3)c2C)c(=O)[nH]1` registered a clearance of 90 mL/min/kg.

In the case of `Cc1cc(C)c(CNC(=O)c2cc(-c3ccc(CN4CCOCC4)cc3)nc3c2cnn3C(C)C)c(=O)[nH]1`, the clearance came to 35 mL/min/kg.

Compound `Cc1cc(C)c(CNC(=O)c2cc(-c3ccc4c(c3)OCCO4)nc3c2cnn3C(C)C)c(=O)[nH]1` showed a clearance of 24 mL/min/kg.

Compound `Cc1cc(C)c(CNC(=O)c2cc(-c3ccc(CN4CCOCC4)cc3)cc(N(C)C3CCCC3)c2C)c(=O)[nH]1` gave a clearance of 16 mL/min/kg.

On to `Cc1cc(C)c(CNC(=O)c2cc(-c3ccc(CN4CCOCC4)cc3)cc3c2cnn3C2CCCC2)c(=O)[nH]1`, for which the clearance was 11 mL/min/kg.

The compound `CCN(c1cc(-c2ccc(CN3CCOCC3)cc2)cc(C(=O)NCc2c(C)cc(C)[nH]c2=O)c1C)C1CCOCC1` [TAZEMETOSTAT] registered a clearance of 13 mL/min/kg.

In another data set the target is T1, Histone-lysine N-methyltransferase EZH2. Nature of the data set: Inhibition of methyltransferase activity of human EZH2 using chicken oligonucleosomes as substrate by pull down assay.
Conditions: not given
Target sequence in this assay (Q15910 whole entry): as the sequence (Q15910 whole entry, looked up) above
Regarding `CCN(c1ccc(Cl)c(C(=O)N(C)Cc2c(C)cc(C)[nH]c2=O)c1C)C1CCOCC1`, the half-maximal inhibitory concentration (IC50) was 0.2 µM.

With `Cc1cc(C)c(CNC(=O)c2cc(-c3ccc(N4CCNCC4)nc3)nc3c2cnn3C(C)C)c(=O)[nH]1`, the half-maximal inhibitory concentration (IC50) is 0.2 µM.

As to `Cc1cc(C)c(CNC(=O)c2ccnc3c2cnn3C(C)C)c(=O)[nH]1`, the midpoint of inhibition, the IC50, lay at 3.1 µM.

`Cc1cc(C)c(CNC(=O)c2cccc3c2ncn3C(C)C)c(=O)[nH]1`: the IC50 is more than 50 µM.

In the case of `CCN(c1cc(Cl)cc(C(=O)NCc2c(C)cc(C)nc2OC)c1C)C1CCOCC1`, the IC50 is more than 10 µM.

`CCn1ncc2c(C(=O)NCc3c(C)cc(C)[nH]c3=O)cc(C3=CC(C)(C)NC(C)(C)C3)nc21` registered an IC50 of 5 µM.

Compound `Cc1cc(C)c(CNC(=O)c2ccc3cnn(C4CCCC4)c3c2C)c(=O)[nH]1` had a half-maximal inhibitory concentration (IC50) of 6 µM.

The compound `Cc1cc(C)c(CNC(=O)c2cc(-c3ccc4c(c3)OCCO4)nc3c2cnn3C(C)C)c(=O)[nH]1` had an IC50 of 0.5 µM.

Compound `Cc1cc(C)c(CNC(=O)c2cc(Br)nc3c2cnn3C2CCNCC2)c(=O)[nH]1` had a 50% inhibitory concentration (IC50) of 2.2 µM.

Compound `Cc1cc(C)c(CNC(=O)c2cc(N3CCNCC3)nc3c2cnn3C(C)C)c(=O)[nH]1` had an IC50 of 1.6 µM.

For the compound `CCN(c1cc(Cl)cc(C(=O)NCc2c(C)cc(C)[nH]c2=O)c1)C1CCOCC1`, half-maximal inhibition (IC50) required 14 µM.

`Cc1cc(C)c(CNC(=O)c2ccc3cnn(C(C)C)c3c2)c(=O)[nH]1` returned an IC50 of more than 50 µM.

With `COc1cc(C(=O)NCc2c(C)cc(C)[nH]c2=O)c2cnn(C(C)C)c2n1`, the IC50 turned out to be 2.4 µM.

The compound `Cc1cc(C)c(CNC(=O)c2cc(Br)nc3c2cnn3C2CCN(C(=O)N(C)C)CC2)c(=O)[nH]1` gave a 50% inhibitory concentration (IC50) of 0.05 µM.

Turning to `Cc1cc(C)c(CNC(=O)c2cc(C(C)C)nc3c2cnn3C(C)C)c(=O)[nH]1`, the midpoint of inhibition, the IC50, lay at 2.3 µM.

Turning to `Cc1cc(C)c(CNC(=O)c2cc(C3=CC(C)(C)NC(C)(C)C3)nc3c2cnn3C)c(=O)[nH]1`, the 50% inhibitory concentration (IC50) came out at 39 µM.

Consider `Cc1cc(C)c(CNC(=O)c2cc(Br)nc3c2cnn3C2CCN(C(=O)OC(C)(C)C)CC2)c(=O)[nH]1`, for which the IC50 was determined as 0.2 µM.

The compound `Cc1cc(C)c(CNC(=O)c2ccc3c(cnn3C(C)C)c2)c(=O)[nH]1` showed an IC50 of 22 µM.

`Cc1cc(C)c(CNC(=O)c2cc(Br)nc3c2cnn3C2CCN(C(=O)C(C)(C)C)CC2)c(=O)[nH]1` had an IC50 of 0.05 µM.

`Cc1cc(C)c(CNC(=O)c2cc(Br)nc3c2cnn3C2CCOCC2)c(=O)[nH]1` yielded an IC50 of 0.7 µM.

As for `Cc1cc(C)c(CNC(=O)c2cccc3c2nnn3C(C)C)c(=O)[nH]1`, the IC50 is more than 50 µM.

`Cc1cc(C)c(CNC(=O)c2cc(Br)nc3c2cnn3C(C)C)c(=O)[nH]1` yielded an IC50 of 0.9 µM.

As for `Cc1cc(C)c(CNC(=O)c2cccc3c2cnn3C(C)C)c(=O)[nH]1`, the IC50 was found to be 1.1 µM.

Compound `Cc1cc(C)c(CNC(=O)c2cc(C3=CC(C)(C)NC(C)(C)C3)nc3c2cnn3C(C)C)c(=O)[nH]1` registered a half-inhibitory concentration (IC50) of 0.3 µM.

`Cc1cc(C)c(CNC(=O)c2cccc3c2ccn3C(C)C)c(=O)[nH]1` returned an IC50 of 3.1 µM.

For the compound `Cc1cc(C)c(CNC(=O)c2ccc3cnn(C4CCCC4)c3c2)c(=O)[nH]1`, the IC50 is more than 50 µM.

In the case of `Cc1cc(C)c(CNC(=O)c2cc(C)n(C3CCCCC3)c2C)c(=O)[nH]1`, the concentration for half-maximal inhibition (IC50) amounted to 3.4 µM.

System in a further data set: not listed separately
Nature of the data set: Volume of distribution at steady state in mouse at 2 mg/kg, iv and 10 mg/kg, po by LC-MS/MS analysis. The data set is classed as ADME, organism-based. Particulars: in vivo, read-out: Vdss.
Take `CCN(c1cc(Cl)cc(C(=O)NCc2c(C)cc(C)[nH]c2=O)c1C)C1CCOCC1`: the Vd came out at 0.45 L/kg.

For the compound `Cc1cc(C)c(CNC(=O)c2cc(Br)cc(N(C)C3CCCC3)c2C)c(=O)[nH]1`, the Vd is 0.97 L/kg.

Turning to `Cc1cc(C)c(CNC(=O)c2cc(Br)cc(N(C)C3CCOCC3)c2C)c(=O)[nH]1`, the Vd was 2.7 L/kg.

Regarding `Cc1cc(C)c(CNC(=O)c2cc(-c3ccc(CN4CCOCC4)cc3)nc3c2cnn3C(C)C)c(=O)[nH]1`, the Vd is 1.5 L/kg.

For `Cc1cc(C)c(CNC(=O)c2cc(-c3ccc4c(c3)OCCO4)nc3c2cnn3C(C)C)c(=O)[nH]1`, the Vd is 1.3 L/kg.

For the compound `Cc1cc(C)c(CNC(=O)c2cc(-c3ccc(CN4CCOCC4)cc3)cc(N(C)C3CCCC3)c2C)c(=O)[nH]1`, the Vd is 0.66 L/kg.

As for `Cc1cc(C)c(CNC(=O)c2cc(-c3ccc(CN4CCOCC4)cc3)cc3c2cnn3C2CCCC2)c(=O)[nH]1`, the Vd was found to be 0.49 L/kg.

Turning to `CCN(c1cc(-c2ccc(CN3CCOCC3)cc2)cc(C(=O)NCc2c(C)cc(C)[nH]c2=O)c1C)C1CCOCC1` [TAZEMETOSTAT], the Vd was 1 L/kg.
